The source of these data is patent US9499519B2, “Fused pyrimidine compounds and use thereof” (Medivation Technologies, Inc., priority 2012, dated 2016).

The IC50 is the concentration needed to halve the response being measured.

What all share (type): biochemical
The target in one assay is T1, IGF-1R (Homo sapiens, UniProt P08069).
T1 construct: purchased Millipore 14-802
The assay can be described thus: In vitro IGF-1R enzymatic assay (ADP-Glo kinase assay). The conditions noted are these: activated IGF-1R. How it is done: IC50 values of the compounds of the invention against IGF-1R and IR were measured in vitro using an ADP-Glo kinase assay Kit (Promega). […] Kinase reactions in both assays were conducted at 30° C. for 20 min with increasing concentrations of compounds of the invention.
Additional compounds of the invention were screened against activated IGF-1R.
(In general: ADP-Glo first removes unused ATP, then detects ADP through luciferase.)

The next assay addresses Trk A (Homo sapiens, UniProt P04629). The assay can be described thus: HotSpot kinase assay: Trk A. The note with it: 100 nM compound, read-out: % Enzyme Inhibition @ 100 nM Trk A. How it is done: Kinase assays were performed using additional compounds against a panel of 3 kinases: Trk A; Trk B; and Trk C. Each compound was tested at a concentration of 0.1 μM in single duplicate mode against the 3 kinases. Compounds were prepared as 10 mM stock solutions in DMSO prior to use in the assay. […] IC50 values and curve fits were obtained using Prism (GraphPad Software). […]
The screening was performed using the “HotSpot” assay platform. The assay measures the conversion of a peptide substrate to ^33P-labelled phosphorylated product. Briefly, specific kinase/substrate pairs along with required cofactors were prepared in reaction buffer. Specifically, the substrate was prepared in reaction buffer (20 mM Hepes, pH 7.5; 10 mM MgCl2; 1 mM EGTA; 0.02% Brij35; 0.02 mg/mL BSA; 0.1 mM Na3VO4; 2 mM DTT; 1% DMSO), followed by delivery of any required cofactor to the resulting substrate solution. The corresponding kinase was delivered into the substrate solution and the reaction mixture was mixed gently. Compound was delivered into the reaction mixture, followed 15-20 minutes later by addition of a mixture of ATP (Sigma, St. Louis Mo.) and ^33P ATP (specific activity 0.01 μCi/μL final; Perkin Elmer, Waltham, Mass.) to a final concentration of 10 μM-30 μM to initiate the reaction. Reactions were carried out at room temperature for 120 minutes, followed by spotting of the reactions onto P81 ion exchange filter paper (Whatman #3698-915; Whatman Inc., Piscataway, N.J.). Unbound phosphate was removed by extensive washing of filters in 0.75% phosphoric acid. […] The percent of enzyme inhibition was calculated based on the percent of remaining kinase activity.

The target of a further assay is Trk B (Homo sapiens, UniProt Q16620). The assay can be described thus: HotSpot kinase assay: Trk B. The note with it: 100 nM compound, read-out: % Enzyme Inhibition @ 100 nM Trk B. The method, then: (§1) Each compound was tested at a concentration of 0.1 μM in single duplicate mode against the 3 kinases. Compounds were prepared as 10 mM stock solutions in DMSO prior to use in the assay. […] IC50 values and curve fits were obtained using Prism (GraphPad Software).
Trk B, sequence (Q16620 32-822): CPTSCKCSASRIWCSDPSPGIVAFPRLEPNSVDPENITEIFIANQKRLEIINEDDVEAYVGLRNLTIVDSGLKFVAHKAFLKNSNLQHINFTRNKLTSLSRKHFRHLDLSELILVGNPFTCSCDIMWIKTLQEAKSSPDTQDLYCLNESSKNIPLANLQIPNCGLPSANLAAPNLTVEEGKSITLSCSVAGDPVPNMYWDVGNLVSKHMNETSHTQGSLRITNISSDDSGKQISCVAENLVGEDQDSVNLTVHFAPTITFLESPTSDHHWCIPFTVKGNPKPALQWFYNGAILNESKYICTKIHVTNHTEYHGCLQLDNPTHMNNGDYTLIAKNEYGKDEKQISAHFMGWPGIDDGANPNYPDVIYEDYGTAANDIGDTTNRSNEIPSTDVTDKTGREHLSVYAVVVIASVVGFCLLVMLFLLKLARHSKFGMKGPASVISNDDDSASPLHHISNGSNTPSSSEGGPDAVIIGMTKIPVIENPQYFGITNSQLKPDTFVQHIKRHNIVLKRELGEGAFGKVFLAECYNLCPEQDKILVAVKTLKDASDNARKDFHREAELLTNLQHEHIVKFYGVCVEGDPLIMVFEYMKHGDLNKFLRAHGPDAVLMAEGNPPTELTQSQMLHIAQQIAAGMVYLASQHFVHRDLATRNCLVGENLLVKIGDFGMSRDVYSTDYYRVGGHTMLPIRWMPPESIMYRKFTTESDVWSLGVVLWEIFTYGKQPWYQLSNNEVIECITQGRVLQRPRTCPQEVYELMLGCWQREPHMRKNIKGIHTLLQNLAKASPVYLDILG
(§2) The screening was performed using the “HotSpot” assay platform. The assay measures the conversion of a peptide substrate to ^33P-labelled phosphorylated product. Briefly, specific kinase/substrate pairs along with required cofactors were prepared in reaction buffer. Specifically, the substrate was prepared in reaction buffer (20 mM Hepes, pH 7.5; 10 mM MgCl2; 1 mM EGTA; 0.02% Brij35; 0.02 mg/mL BSA; 0.1 mM Na3VO4; 2 mM DTT; 1% DMSO), followed by delivery of any required cofactor to the resulting substrate solution. The corresponding kinase was delivered into the substrate solution and the reaction mixture was mixed gently. Compound was delivered into the reaction mixture, followed 15-20 minutes later by addition of a mixture of ATP (Sigma, St. Louis Mo.) and ^33P ATP (specific activity 0.01 μCi/μL final; Perkin Elmer, Waltham, Mass.) to a final concentration of 10 μM-30 μM to initiate the reaction. […] The percent of enzyme inhibition was calculated based on the percent of remaining kinase activity.

For a further assay, the target named is Trk C (Homo sapiens, UniProt Q16288). The assay can be described thus: HotSpot kinase assay: Trk C. The method, then: as §1, §2
Trk C, sequence (Q16288 32-839): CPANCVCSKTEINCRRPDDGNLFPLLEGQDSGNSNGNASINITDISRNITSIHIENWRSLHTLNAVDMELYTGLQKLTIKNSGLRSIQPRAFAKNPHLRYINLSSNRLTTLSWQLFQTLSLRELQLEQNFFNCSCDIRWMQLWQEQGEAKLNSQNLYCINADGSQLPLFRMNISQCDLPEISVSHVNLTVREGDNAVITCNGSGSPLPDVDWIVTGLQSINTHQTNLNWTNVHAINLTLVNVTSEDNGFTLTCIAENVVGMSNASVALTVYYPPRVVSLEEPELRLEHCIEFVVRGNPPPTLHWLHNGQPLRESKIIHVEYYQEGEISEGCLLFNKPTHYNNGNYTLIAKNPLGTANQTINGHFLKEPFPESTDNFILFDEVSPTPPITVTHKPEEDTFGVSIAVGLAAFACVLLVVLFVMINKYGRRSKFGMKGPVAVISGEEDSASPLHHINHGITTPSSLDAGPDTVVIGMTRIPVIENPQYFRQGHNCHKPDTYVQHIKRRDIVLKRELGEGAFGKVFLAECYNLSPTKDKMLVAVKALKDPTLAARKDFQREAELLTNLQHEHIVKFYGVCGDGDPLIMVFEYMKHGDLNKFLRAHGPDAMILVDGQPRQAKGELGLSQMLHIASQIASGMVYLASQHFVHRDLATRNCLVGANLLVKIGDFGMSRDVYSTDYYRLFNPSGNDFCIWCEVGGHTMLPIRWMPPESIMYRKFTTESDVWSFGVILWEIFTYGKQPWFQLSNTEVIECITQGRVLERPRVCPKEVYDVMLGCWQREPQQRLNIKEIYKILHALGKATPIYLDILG
(§3) Kinase assays were performed using additional compounds against a panel of 4 kinases: AXL; c-Met; c-Mer; and Trk C. Each compound was tested at a concentration of […] in single duplicate mode against the 4 kinases. Compounds were prepared as 10 mM stock solutions in DMSO prior to use in the assay. […] IC50 values and curve fits were obtained using Prism (GraphPad Software).

Another assay has as its target c-Met (Homo sapiens, UniProt P08581). The assay can be described thus: HotSpot kinase assay: c-Met. The note with it: 100 nM compound, read-out: % Enzyme Inhibition @ 100 nM c-MET. How it is done: as §3, §2
A further assay concerns the target T2, c-Mer (Homo sapiens, UniProt Q12866).
T2 sequence (Q12866 21-999): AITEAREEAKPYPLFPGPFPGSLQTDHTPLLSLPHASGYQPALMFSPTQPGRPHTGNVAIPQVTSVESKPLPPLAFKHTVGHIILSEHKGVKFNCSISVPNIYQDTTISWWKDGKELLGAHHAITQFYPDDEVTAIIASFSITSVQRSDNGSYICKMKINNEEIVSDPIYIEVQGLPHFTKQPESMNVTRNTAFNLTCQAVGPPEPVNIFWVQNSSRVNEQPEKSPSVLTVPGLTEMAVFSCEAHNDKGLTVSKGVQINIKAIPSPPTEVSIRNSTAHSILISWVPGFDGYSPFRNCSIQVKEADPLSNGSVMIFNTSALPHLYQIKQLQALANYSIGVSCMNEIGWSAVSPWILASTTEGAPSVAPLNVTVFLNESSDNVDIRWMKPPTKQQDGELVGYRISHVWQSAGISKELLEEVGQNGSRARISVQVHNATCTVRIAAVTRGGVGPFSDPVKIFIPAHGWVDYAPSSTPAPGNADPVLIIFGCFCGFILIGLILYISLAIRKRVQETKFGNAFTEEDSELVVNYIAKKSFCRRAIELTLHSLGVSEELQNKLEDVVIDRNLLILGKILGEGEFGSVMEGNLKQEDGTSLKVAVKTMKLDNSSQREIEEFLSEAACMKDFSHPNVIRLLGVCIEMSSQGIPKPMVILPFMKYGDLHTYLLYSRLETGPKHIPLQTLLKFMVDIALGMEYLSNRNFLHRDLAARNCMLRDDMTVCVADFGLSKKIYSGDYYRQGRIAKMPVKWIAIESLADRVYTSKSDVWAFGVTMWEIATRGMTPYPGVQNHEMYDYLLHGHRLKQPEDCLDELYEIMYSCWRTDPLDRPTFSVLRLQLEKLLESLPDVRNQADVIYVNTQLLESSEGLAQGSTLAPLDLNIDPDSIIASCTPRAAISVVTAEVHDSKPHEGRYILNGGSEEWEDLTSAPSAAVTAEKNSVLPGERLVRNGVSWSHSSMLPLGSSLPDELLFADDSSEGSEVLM
The assay can be described thus: HotSpot kinase assay: c-Mer. The note with it: 100 nM compound, read-out: % Enzyme Inhibition @ 100 nM c-MER. How it is done:
as §3, §2

T1 sequence (P08069 31-1367): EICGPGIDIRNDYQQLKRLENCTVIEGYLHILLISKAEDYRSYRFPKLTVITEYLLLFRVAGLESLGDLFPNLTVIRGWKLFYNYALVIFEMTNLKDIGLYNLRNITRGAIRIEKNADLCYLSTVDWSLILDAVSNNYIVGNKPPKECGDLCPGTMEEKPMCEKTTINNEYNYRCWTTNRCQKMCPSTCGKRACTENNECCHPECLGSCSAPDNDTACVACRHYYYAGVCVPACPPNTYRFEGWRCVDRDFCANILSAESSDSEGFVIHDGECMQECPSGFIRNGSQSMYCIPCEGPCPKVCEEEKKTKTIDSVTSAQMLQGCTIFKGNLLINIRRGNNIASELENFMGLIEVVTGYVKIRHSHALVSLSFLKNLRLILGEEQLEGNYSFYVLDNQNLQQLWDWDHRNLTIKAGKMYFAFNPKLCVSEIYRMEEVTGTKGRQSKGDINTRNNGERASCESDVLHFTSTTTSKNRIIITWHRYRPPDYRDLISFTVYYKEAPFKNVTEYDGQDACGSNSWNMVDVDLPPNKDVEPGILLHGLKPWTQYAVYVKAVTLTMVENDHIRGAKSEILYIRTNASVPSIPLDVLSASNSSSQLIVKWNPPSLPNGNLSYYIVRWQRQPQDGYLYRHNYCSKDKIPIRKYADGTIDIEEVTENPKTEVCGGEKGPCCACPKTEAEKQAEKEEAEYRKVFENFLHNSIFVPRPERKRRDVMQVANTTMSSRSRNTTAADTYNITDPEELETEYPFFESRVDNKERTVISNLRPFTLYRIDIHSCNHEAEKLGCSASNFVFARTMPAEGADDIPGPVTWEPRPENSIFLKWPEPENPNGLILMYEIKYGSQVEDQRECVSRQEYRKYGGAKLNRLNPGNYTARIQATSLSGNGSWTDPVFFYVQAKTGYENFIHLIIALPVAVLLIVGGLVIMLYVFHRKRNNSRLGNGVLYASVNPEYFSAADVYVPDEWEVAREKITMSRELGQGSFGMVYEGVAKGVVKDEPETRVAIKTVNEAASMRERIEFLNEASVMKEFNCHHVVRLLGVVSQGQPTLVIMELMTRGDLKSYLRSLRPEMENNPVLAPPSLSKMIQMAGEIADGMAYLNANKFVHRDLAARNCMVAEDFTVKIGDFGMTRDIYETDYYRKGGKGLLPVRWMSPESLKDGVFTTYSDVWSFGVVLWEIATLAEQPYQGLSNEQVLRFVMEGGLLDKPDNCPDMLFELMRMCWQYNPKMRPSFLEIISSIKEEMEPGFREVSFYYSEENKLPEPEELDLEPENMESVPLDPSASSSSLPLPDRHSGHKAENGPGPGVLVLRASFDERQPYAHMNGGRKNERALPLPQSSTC
c-Met, sequence (P08581 25-1390): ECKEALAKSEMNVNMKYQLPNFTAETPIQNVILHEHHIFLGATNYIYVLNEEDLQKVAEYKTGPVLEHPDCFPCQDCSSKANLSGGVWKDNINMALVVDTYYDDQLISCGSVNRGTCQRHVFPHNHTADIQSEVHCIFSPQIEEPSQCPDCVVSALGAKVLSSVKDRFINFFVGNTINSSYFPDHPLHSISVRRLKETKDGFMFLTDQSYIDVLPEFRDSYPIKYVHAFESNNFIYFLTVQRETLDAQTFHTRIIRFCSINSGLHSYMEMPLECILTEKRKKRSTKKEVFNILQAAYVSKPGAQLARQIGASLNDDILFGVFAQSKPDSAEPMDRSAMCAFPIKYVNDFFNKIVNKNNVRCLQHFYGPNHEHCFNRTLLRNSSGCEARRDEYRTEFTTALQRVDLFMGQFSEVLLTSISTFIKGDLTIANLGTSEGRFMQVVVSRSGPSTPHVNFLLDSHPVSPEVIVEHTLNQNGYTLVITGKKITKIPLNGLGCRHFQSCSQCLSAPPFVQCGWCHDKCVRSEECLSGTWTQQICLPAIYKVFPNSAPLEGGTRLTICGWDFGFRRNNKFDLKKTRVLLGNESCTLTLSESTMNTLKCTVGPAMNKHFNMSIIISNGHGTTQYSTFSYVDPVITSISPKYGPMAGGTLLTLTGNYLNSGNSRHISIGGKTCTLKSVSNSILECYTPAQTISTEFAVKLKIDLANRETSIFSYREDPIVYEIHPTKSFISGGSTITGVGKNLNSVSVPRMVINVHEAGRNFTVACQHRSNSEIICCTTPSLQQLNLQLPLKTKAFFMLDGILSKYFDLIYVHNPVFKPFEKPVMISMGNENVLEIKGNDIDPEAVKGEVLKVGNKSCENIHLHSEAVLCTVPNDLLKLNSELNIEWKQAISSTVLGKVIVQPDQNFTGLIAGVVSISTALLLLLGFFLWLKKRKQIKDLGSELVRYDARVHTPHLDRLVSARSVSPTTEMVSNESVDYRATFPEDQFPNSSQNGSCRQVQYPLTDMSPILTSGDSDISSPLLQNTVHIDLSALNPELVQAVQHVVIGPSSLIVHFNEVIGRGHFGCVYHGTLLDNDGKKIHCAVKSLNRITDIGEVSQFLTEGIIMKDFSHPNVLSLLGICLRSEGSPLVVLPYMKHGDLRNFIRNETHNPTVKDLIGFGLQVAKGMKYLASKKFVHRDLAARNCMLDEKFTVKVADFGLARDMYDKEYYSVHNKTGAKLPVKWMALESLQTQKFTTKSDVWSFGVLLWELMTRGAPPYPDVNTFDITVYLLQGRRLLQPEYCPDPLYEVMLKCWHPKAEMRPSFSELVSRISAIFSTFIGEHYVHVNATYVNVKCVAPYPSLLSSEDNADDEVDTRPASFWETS
Trk A, sequence (P04629 33-796): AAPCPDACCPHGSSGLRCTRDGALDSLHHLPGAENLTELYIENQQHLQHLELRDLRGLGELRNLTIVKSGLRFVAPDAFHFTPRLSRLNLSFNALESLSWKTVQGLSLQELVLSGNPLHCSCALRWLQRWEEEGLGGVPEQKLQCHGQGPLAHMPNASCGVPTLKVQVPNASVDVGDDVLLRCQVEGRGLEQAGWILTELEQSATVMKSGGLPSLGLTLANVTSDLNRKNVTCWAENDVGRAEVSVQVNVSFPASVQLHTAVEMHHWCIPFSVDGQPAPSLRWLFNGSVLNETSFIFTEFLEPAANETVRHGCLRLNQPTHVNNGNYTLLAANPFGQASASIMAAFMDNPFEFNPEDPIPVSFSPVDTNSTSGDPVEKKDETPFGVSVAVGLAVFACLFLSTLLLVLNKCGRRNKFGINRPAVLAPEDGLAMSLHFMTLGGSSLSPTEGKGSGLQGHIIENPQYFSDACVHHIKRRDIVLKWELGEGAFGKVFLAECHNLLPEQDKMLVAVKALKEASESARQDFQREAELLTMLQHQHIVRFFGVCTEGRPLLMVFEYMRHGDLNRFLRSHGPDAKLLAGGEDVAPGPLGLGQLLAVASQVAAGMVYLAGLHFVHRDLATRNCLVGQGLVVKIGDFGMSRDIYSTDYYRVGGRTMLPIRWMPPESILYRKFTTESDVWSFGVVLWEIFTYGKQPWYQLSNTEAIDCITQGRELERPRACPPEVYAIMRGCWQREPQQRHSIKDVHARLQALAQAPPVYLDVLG

`CC(C)c1cc(Nc2nc(N3CCCC3C(=O)N(C)C)nc3c2CCC3)n[nH]1` (single isomer, unassigned) [Compound 20b, 1-(4-(5-isopropyl-1H-pyrazol-3-ylamino)-6,7-dihydro-5H-cyclopenta[d]pyrimidin-2-yl)-N,N-dimethylpyrrolidine-2-carboxamide]: the IC50 against IGF-1R was 3200 nM; at Trk C (Trk C) it was 55.1 nM. Besides, the inhibition at 0.03 µM on IGF-1R (30 nM, average, read-out: % Inh @ 30 nM Avg) was found to be 9%. Besides, the inhibition at 0.1 µM is less than 39% at Trk A; less than 39% on Trk B; more than 60% on Trk C (100 nM compound, HotSpot, read-out: % Enzyme Inhibition @ 100 nM Trk C); less than 39% on c-Met; less than 39% on c-Mer. The “selectivity for Trk C inhibition over IGF-1R” value on Trk C (Trk C over IGF-1R) is listed as “about 60 fold”. For the same compound, the “selectivity for Trk C inhibition over IR” value at Trk C (Trk C over IR) is “about 30 fold”.
